Results reported in PMC11472058, “Trinucleotide cap analogs with triphosphate chain modifications: synthesis, properties, and evaluation as mRNA capping reagents” (Nucleic Acids Research, 2024).

Experiments:
human eIF4E1a = molecular target: T1, human eIF4E1a (Homo sapiens, UniProt P06730); test: Fluorescence quenching titration (FQT) binding assay with eIF4E; conditions: for Kd: fluorescence quenching titration, 20 °C, pH 7.2, average of triplicates ± SD, read-out: heIF4E1a KD
T1 construct: made in house; host or cells: E. coli Rosetta 2 (DE3)pLysS
Method: The human eIF4E1a protein was expressed without affinity tag in E. coli Rosseta 2 (DE3)pLysS strain (Novagen) under conditions leading to accumulation of the produced protein in inclusion bodies ([48]). The protein was extracted from inclusion bodies with buffer containing 6 M guanidine hydrochloride, refolded by one-step dialysis against 50 mM HEPES/KOH (pH 7.2), 100 mM KCl, 0.5 mM EDTA, 2 mM DTT, and purified by ion exchange chromatography on HiTrap SP HP 5 ml column (GE Healthcare) using salts gradient. Finally, protein was filtered using Ultrafree MC-HV Centrifugal PVDF filters with 0.45 μm membrane pore (Millipore) to remove protein aggregates and its concentration was determined spectrophotometrically assuming the theoretical extinction coefficient ϵ280nm = 52 940 L mol^−1cm^−1—calculated from amino acid composition using algorithm on ExPASy Server.
Fluorescence titration measurements were carried out on a LS-55 spectrofluorometer (Perkin Elmer Co., Norwalk, CT, USA) in a quartz semi-micro cuvette (Hellma, Germany) with optical lengths 4 mm and 10 mm for absorption and emission, respectively, which was thermostated at 20.0 ± 0.2 °C. The titrations were performed in 50 mM Hepes/KOH pH 7.2, 100 mM KCl, 0.5 mM EDTA and 1 mM DTT by adding 1 μl aliquots of increasing concentrations of the cap solutions to 1.4 ml of 0.1 μM eIF4E1a solution. The eIF4E1a fluorescence was excited at 280 nm and the fluorescence intensity was monitored at a single wavelength 340 nm. The measured fluorescence intensities were corrected for dilution (<4%) and for the inner filter effect. Association equilibrium constants (Kas) were obtained by fitting the theoretical curve for fluorescence intensity (F) upon total concentration of cap analogs ([L]) to the titration data according to the equation: […]
with the concentration of the cap analogs–eIF4E1a complex [cx] given by:
where Δϕ stands for the difference between the fluorescence efficiencies of the apo- and cap analog bound proteins; ϕlig-free is the fluorescence efficiency of the free cap analog; F(0) is the initial fluorescence, and Pact is the total concentration of the active protein ([49]). The final KAS values were calculated as a weighted average from three independent titrations and represented as the KD values. Numerical least-squares nonlinear regression analysis was performed using ORIGIN 2021 from Microcal Software Inc., USA.
Recognition of the mRNA 5′ cap by translation initiation factor 4E (eIF4E) is considered to be the rate-limiting step for the entire translation process ([63],[64]), therefore we investigated the affinity of novel trinucleotide cap analogs to the canonical human eIF4E1a protein by fluorescence quenching titration (FQT; Table 1 column 1, Figure 3) ([65]). As a reference, we determined the dissociation constant between heIF4E1a and the trinucleotide cap-1 structure m^7GpppAmpG, which was equal to 42 nM and very close to the analogous value previously determined for mouse Δ27NeIF4E (46 nM) ([12]). In the case of all modifications tested, the KD values for cap-heIF4E1a complexes are consistent with the results previously obtained for dinucleotide counterparts and murine eIF4E protein, although the magnitude of the modification effect is generally lower. The most tightly bound tetraphosphate analogs (compounds 10–12) show KD values of 6–7 nM, which means that their affinity is about 6-fold higher compared to the triphosphate counterparts. The affinities decrease upon CH2 or CCl2 modification of the tetraphosphate bridge (compounds 13–16), but they are still 4–5 times higher than for the triphosphate analogs with the same adenosine methylation pattern.

Human Dcp2 = molecular target: T2, Human Dcp2 (Homo sapiens, UniProt Q8IU60); test: RNA decapping assay with recombinant hDcp2; type: biochemical; conditions: for Susceptibility to hDcp2 (@30 min): fraction of decapped RNA after 30 min of incubation with hDcp2, 27-nt RNA capped with the analog, 37 °C, triplicates ± SD
T2 construct: made in house; host or cells: E. coli
Method: Human Dcp2 was expressed in E. coli and purified as described previously ([52]). Short 27 nt-capped RNAs (24.2 ng) were diluted with decapping buffer (50 mM Tris–HCl pH 8.0, 50 mM NH4Cl, 0.01% NP-40, 1 mM DTT, 5 mM MgCl2 and 2 mM MnCl2; 2.9 μl of freshly prepared 10 × Buffer) and the final volume was adjusted to 29 μl with ultrapure RNase free water. 4.2 ng (5 μl) of the solution was taken out as time zero reference and diluted with 5 μl loading dye (5 M urea, 44% formamide, 20 mM EDTA, 0.03% bromophenol blue, 0.03% xylene cyanol). The remaining RNAs (20 ng/24 μl) were subjected to 10 nM hDcp2 (250 nM, 1 μl) and the mixtures were incubated at 37°C for 1 h. At defined time points (5, 15, 30 and 60 min), 4 ng of RNA (5 μl) were taken out and the reactions were quenched by adding an equal volume of loading dye. RNAs were resolved electrophoretically on denaturing 15% acrylamide:bisacrylamide 19:1/7 M urea/1 × TBE gel, stained with SYBR Gold (Invitrogen) and visualized using a Typhoon FLA 9500 (GE Healthcare). The decapping progress was determined for each time point by densitometry analysis of the gels, as a ratio between the intensity of the band corresponding to capped RNA and the sum of the intensity of bands from capped and uncapped RNAs. The percentages of remaining capped RNA were then plotted as a function of time.
The RNAs used to determine the capping efficiencies were also useful to study the susceptibility of capped RNA to decapping by hDcp2, the catalytic subunit of the major human mRNA decapping complex Dcp1/Dcp2, which releases m^7GDP and 5′-monophosphorylated RNA (in this case the 26-nt pApG-RNA24; Figure 4C). The progress of decapping at different time points (5, 15, 30 and 60 min) was monitored by HR-PAGE followed by densitometric analysis of the gels (Figure 4C, triplicates of gels are shown in Supplementary Figure S2), and the fraction of remaining capped RNA (27-nt) was plotted as a function of time (Figure 4D-G). […] For better visualization, the data of modified capped RNAs were grouped according to the type of modification present at the 5′ end and presented in separate graphs (Figure 4E–G). To quantify the relative susceptibility to hDcp2, we compared the decapping levels at the 30 min time point (Table 1). For RNAs capped with β-S-triphosphate analogs (1–6, Figure 4E, Table 1), we observed a significant difference in susceptibility to hDcp2 between RP and SP isomers, independent of the methylation pattern.

T1 sequence (P06730 whole entry): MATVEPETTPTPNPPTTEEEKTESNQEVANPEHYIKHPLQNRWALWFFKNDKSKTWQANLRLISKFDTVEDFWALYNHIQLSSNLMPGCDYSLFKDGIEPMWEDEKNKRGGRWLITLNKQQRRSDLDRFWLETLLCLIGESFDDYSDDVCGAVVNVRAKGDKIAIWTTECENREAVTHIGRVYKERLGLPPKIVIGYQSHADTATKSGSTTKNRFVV

C[n+]1cn([C@@H]2O[C@H](COP(=O)(O)O[P@@](=O)([S-])OP(=O)(O)OC[C@H]3O[C@@H](n4cnc5c(N)ncnc54)[C@H](O)[C@@H]3OP(=O)(O)OC[C@H]3O[C@@H](n4cnc5c(=O)[nH]c(N)nc54)[C@H](O)[C@@H]3O)[C@@H](O)[C@H]2O)c2nc(N)nc(O)c21 [Compound 1, m^7GppSpApG]
Kd (human eIF4E1a): 12.6 ± 0.8 nM
Susceptibility to hDcp2 (@30 min) (Human Dcp2): 0.81 ± 0.16

C[n+]1cn([C@@H]2O[C@H](COP(=O)(O)O[P@](=O)([S-])OP(=O)(O)OC[C@H]3O[C@@H](n4cnc5c(N)ncnc54)[C@H](O)[C@@H]3OP(=O)(O)OC[C@H]3O[C@@H](n4cnc5c(=O)[nH]c(N)nc54)[C@H](O)[C@@H]3O)[C@@H](O)[C@H]2O)c2nc(N)nc(O)c21 [Compound 2, m^7GppSpApG]
Kd (human eIF4E1a): 15.9 ± 0.9 nM
Susceptibility to hDcp2 (@30 min) (Human Dcp2): 0.31 ± 0.09

COC1C(OP(=O)(O)OCC2OC(n3cnc4c(=O)[nH]c(N)nc43)C(O)C2O)C(COP(=O)(O)OP(=O)([S-])OP(=O)(O)OCC2OC(n3c[n+](C)c4c(O)nc(N)nc43)C(O)C2O)OC1n1cnc2c(N)ncnc21 (stereo not shown) [Compound 3, m^7GppSpAmpG]
Kd (human eIF4E1a): 14 ± 0.8 nM
Susceptibility to hDcp2 (@30 min) (Human Dcp2): 0.82 ± 0.09

COC1C(OP(=O)(O)OCC2OC(n3cnc4c(=O)[nH]c(N)nc43)C(O)C2O)C(COP(=O)(O)OP(=O)([S-])OP(=O)(O)OCC2OC(n3c[n+](C)c4c(O)nc(N)nc43)C(O)C2O)OC1n1cnc2c(N)ncnc21 (stereo not shown) [Compound 4, m^7GppSpAmpG]
Kd (human eIF4E1a): 16.6 ± 1.1 nM
Susceptibility to hDcp2 (@30 min) (Human Dcp2): 0.32 ± 0.10

CNc1ncnc2c1ncn2[C@@H]1O[C@H](COP(=O)(O)O[P@@](=O)([S-])OP(=O)(O)OC[C@H]2O[C@@H](n3c[n+](C)c4c(O)nc(N)nc43)[C@H](O)[C@@H]2O)[C@@H](OP(=O)(O)OC[C@H]2O[C@@H](n3cnc4c(=O)[nH]c(N)nc43)[C@H](O)[C@@H]2O)[C@H]1OC [Compound 6, m^7GppSp^m6AmpG]
Kd (human eIF4E1a): 21.7 ± 0.6 nM
Susceptibility to hDcp2 (@30 min) (Human Dcp2): 0.15 ± 0.10

C[n+]1cn([C@@H]2O[C@H](COP(=O)(O)OP(=O)(O)OP(=O)([O-])SC[C@H]3O[C@@H](n4cnc5c(N)ncnc54)[C@H](O)[C@@H]3OP(=O)(O)OC[C@H]3O[C@@H](n4cnc5c(=O)[nH]c(N)nc54)[C@H](O)[C@@H]3O)[C@@H](O)[C@H]2O)c2nc(N)nc(O)c21 [Compound 7, m^7Gppp^5’SApG]
effect of modification on binding affinity for heIF4E1a (in words) (human eIF4E1a; compared to corresponding triphosphates): virtually no effect on binding affinity
Kd (human eIF4E1a): 31.4 ± 1.9 nM
Susceptibility to hDcp2 (@30 min) (Human Dcp2): 0.60 ± 0.15

CO[C@@H]1[C@H](OP(=O)(O)OC[C@H]2O[C@@H](n3cnc4c(=O)[nH]c(N)nc43)[C@H](O)[C@@H]2O)[C@@H](COP(=O)([O-])OP(=O)(O)CP(=O)(O)OP(=O)(O)OC[C@H]2O[C@@H](n3c[n+](C)c4c(O)nc(N)nc43)[C@H](O)[C@@H]2O)O[C@H]1n1cnc2c(N)ncnc21 [Compound 16, m^7GppCH2ppAmpG]
Kd (human eIF4E1a): 12.1 ± 0.5 nM
susceptibility of capped RNA to decapping by hDcp2 (in words) (Human Dcp2; 27-nt capped RNA, up to 60 min): significantly reduced the susceptibility to decapping
Susceptibility to hDcp2 (@30 min) (Human Dcp2): 0.27 ± 0.07
